Assays:
[1] = system: Vibrio cholerae; assay: Antibacterial activity against Vibrio cholerae at 10 mg/10 ml dimethylformamide; assay type: functional
[2] = system: Salmonella typhimurium; assay: Antibacterial activity against Salmonella Typhimurium at 10 mg/10 ml dimethylformamide; assay type: functional, Salmonella enterica subsp. enterica serovar Typhimurium
[3] = system: Escherichia coli; assay: Antibacterial activity against Escherichia coli at 10 mg/10 ml dimethylformamide; assay type: functional
[4] = system: Klebsiella pneumoniae; assay: Antibacterial activity against Klebsiella pneumoniae at 10 mg/10 ml dimethylformamide; assay type: functional
[5] = system: Vibrio cholerae; assay: Antibacterial activity against Vibrio cholerae at 6 mg/10 ml dimethylformamide; assay type: functional
[6] = system: Salmonella typhimurium; assay: Antibacterial activity against Salmonella Typhimurium at 6 mg/10 ml dimethylformamide; assay type: functional, Salmonella enterica subsp. enterica serovar Typhimurium
[7] = system: Klebsiella pneumoniae; assay: Antibacterial activity against Klebsiella pneumoniae at 6 mg/10 ml dimethylformamide; assay type: functional
[8] = system: Klebsiella pneumoniae; assay: Antibacterial activity against Klebsiella pneumoniae at 2 mg/10 ml dimethylformamide; assay type: functional
[9] = system: Escherichia coli; assay: Antibacterial activity against Escherichia coli at 8 mg/10 ml dimethylformamide; assay type: functional
[10] = system: Vibrio cholerae; assay: Antibacterial activity against Vibrio cholerae at 8 mg/10 ml dimethylformamide; assay type: functional
[11] = system: Salmonella typhimurium; assay: Antibacterial activity against Salmonella Typhimurium at 4 mg/10 ml dimethylformamide; assay type: functional, Salmonella enterica subsp. enterica serovar Typhimurium
[12] = system: Escherichia coli; assay: Antibacterial activity against Escherichia coli at 6 mg/10 ml dimethylformamide; assay type: functional
[13] = system: Salmonella typhimurium; assay: Antibacterial activity against Salmonella Typhimurium at 2 mg/10 ml dimethylformamide; assay type: functional, Salmonella enterica subsp. enterica serovar Typhimurium
[14] = system: Escherichia coli; assay: Antibacterial activity against Escherichia coli at 4 mg/10 ml dimethylformamide; assay type: functional
[15] = system: Escherichia coli; assay: Antibacterial activity against Escherichia coli at 2 mg/10 ml dimethylformamide; assay type: functional
[16] = system: Vibrio cholerae; assay: Antibacterial activity against Vibrio cholerae at 2 mg/10 ml dimethylformamide; assay type: functional
[17] = system: Klebsiella pneumoniae; assay: Antibacterial activity against Klebsiella pneumoniae at 8 mg/10 ml dimethylformamide; assay type: functional
[18] = system: Klebsiella pneumoniae; assay: Antibacterial activity against Klebsiella pneumoniae at 4 mg/10 ml dimethylformamide; assay type: functional
[19] = system: Vibrio cholerae; assay: Antibacterial activity against Vibrio cholerae at 4 mg/10 ml dimethylformamide; assay type: functional
[20] = system: Salmonella typhimurium; assay: Antibacterial activity against Salmonella Typhimurium at 8 mg/10 ml dimethylformamide; assay type: functional, Salmonella enterica subsp. enterica serovar Typhimurium

CN[C@@H]1[C@H](O[C@H]2[C@H](O[C@H]3[C@H](O)[C@@H](O)[C@H](N=C(N)N)[C@@H](O)[C@@H]3N=C(N)N)O[C@@H](C)[C@]2(O)C=O)O[C@@H](CO)[C@H](O)[C@H]1O [STREPTOMYCIN]
inhibition zone (IZ) [1]: 12 mm
inhibition zone (IZ) [2]: 9 mm
inhibition zone (IZ) [3]: 8 mm
inhibition zone (IZ) [4]: 10 mm

CC(=O)OC1=C2C(C)(C)[C@@H](O[C@@H]3O[C@@H](C)[C@H](O)[C@@H](O)[C@H]3O)C=C[C@]2(C)[C@H]2[C@H](O)C[C@@]3(C)[C@H](c4ccoc4)C[C@H]4O[C@]43[C@]2(C)C1=O
inhibition zone (IZ) [5]: 17 mm
inhibition zone (IZ) [1]: 20 mm
inhibition zone (IZ) [6]: 13 mm
inhibition zone (IZ) [7]: 14 mm
inhibition zone (IZ) [8]: 10 mm
inhibition zone (IZ) [2]: 16 mm
inhibition zone (IZ) [9]: 14 mm
inhibition zone (IZ) [10]: 18 mm
inhibition zone (IZ) [11]: 12 mm
inhibition zone (IZ) [12]: 12 mm
inhibition zone (IZ) [13]: 11 mm
inhibition zone (IZ) [14]: 11 mm
inhibition zone (IZ) [15]: 10 mm
inhibition zone (IZ) [16]: 13 mm
inhibition zone (IZ) [17]: 16 mm
inhibition zone (IZ) [3]: 15 mm
inhibition zone (IZ) [18]: 12 mm
inhibition zone (IZ) [4]: 18 mm
inhibition zone (IZ) [19]: 15 mm
inhibition zone (IZ) [20]: 15 mm

Source: ChEMBL document CHEMBL1148998, “Limonoids from the seeds of Melia azedarach” (1986)
